Read-outs that look alike come from different tables or passages of the source. Numbered stars: 1 amine (or outer) side, 2 acyl side, 3 side chain; on linkers, the order of the positions; unused ones are H or OH. Bridge positions count the residues as written; N and C are the ends. Square brackets hold non-standard residues; d marks the D form. Peptide text beside a SMILES is read from it. X2 = O=C(O)CCCCCCCCCCCCCCCCCCC(=O)N[C@@H](CCCCNC(=O)CCOCCOCCNC(=O)CCOCCOCCNC(=O)CCC(=O)N(CCNC(=O)C[*:1])CCNC(=O)C[*:2])C(=O)O; X1 = O=C(O)CCCCCCCCCCCCCCCCC(=O)N[C@@H](CCCCNC(=O)CCOCCOCCNC(=O)CCOCCOCCNC(=O)CCC(=O)N(CCNC(=O)C[*:1])CCNC(=O)C[*:2])C(=O)O; Aib = CC(C)(N)C(=O)O
Legend:
human GLP-1R = target: T1, human GLP-1R (Homo sapiens, UniProt P43220); test: In vitro receptor activation reporter assay (CRE-Luc), HEK293-GLP-1R-CRE; assay type: cell-based
T1 construct: expressed in transfected cells
Description: (§1) The EC50 of each peptide was determined using GraphPad Prism 6 software (GraphPad, San Diego, CA).
HEK293 cells were infected with lentivirus encoding firefly luciferase gene under the control of cAMP responsive element (CRE) promoter (Qiagen, The Netherlands) and then were selected using 1 g/mL puromycin (Life Technologies, Carlsbad) for 1 week. The surviving cells (referred to as CRE-HEK293) were expanded and then transfected with a G418 selective mammalian expression plasmid encoding human GLP-1R. In brief, GLP-1R plasmid was transfected into CRE-HEK293 cells using Lipofectamine 2000 and selected with 400 g/mL Geneticin (Life Technologies, Carlsbad, CA). Single colony stable cell line overexpressing CRE-luciferase and GLP1R was then established for in vitro activity assay.

human GIPR = target: T2, human GIPR (Homo sapiens, UniProt P48546); test: In vitro receptor activation reporter assay (CRE-Luc), HEK293-GIPR-CRE; assay type: cell-based
T2 construct: expressed in transfected cells
T2 sequence (P48546 22-466): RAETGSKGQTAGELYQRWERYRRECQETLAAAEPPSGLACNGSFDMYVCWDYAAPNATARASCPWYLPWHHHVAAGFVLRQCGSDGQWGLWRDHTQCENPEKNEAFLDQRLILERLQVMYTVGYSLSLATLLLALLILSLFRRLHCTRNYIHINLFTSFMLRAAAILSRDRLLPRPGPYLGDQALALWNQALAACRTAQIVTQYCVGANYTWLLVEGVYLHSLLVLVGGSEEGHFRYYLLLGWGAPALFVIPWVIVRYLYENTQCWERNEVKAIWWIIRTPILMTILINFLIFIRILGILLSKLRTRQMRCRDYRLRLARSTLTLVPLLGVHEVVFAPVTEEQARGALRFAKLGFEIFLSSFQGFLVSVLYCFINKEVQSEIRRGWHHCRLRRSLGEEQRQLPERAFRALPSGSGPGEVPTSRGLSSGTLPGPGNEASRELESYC
Excerpt: HEK293 cells were infected with lentivirus encoding firefly luciferase gene under the control of cAMP responsive element (CRE) promoter (Qiagen, The Netherlands) and then were selected using 1 g mL^−1 puromycin (Life Technologies, Carlsbad) for 1 week. The surviving cells (referred to as CRE-HEK293) were expanded and then transfected with a G418 selective mammalian expression plasmid encoding human GLP-1R or GIPR. In brief, GLP-1R or GIPR plasmid was transfected into CRE-HEK293 cells using Lipofectamine 2000 and selected with 400 g mL^−1 Geneticin (Life Technologies, Carlsbad, CA). Single colony stable cell line overexpressing CRE-luciferase and GLP-1R or GIPR (HEK293-GLP-1R-CRE or HEK293-GIPR-CRE) was then established for in vitro activity assay.
as §1

[1] = unnumbered table (Table 10), average of runs, read-out: GLP1R (nM) [EC50] average
[2] = unnumbered table (Table 10), run 02/19, read-out: GLP1R (nM) [EC50] 02/19
[3] = unnumbered table (Table 10), run 3/25, read-out: GLP1R (nM) [EC50] 3/25
[4] = unnumbered table (Table 10), run 03/26, read-out: GLP1R (nM) [EC50] 03/26
[5] = unnumbered table (Table 10), average of runs, read-out: GIPR (nM) [EC50] average
[6] = unnumbered table (Table 10), run 02/19, read-out: GIPR (nM) [EC50] 02/19
[7] = unnumbered table (Table 10), run 03/26, read-out: GIPR (nM) [EC50] 03/26

T1 sequence (P43220 24-463): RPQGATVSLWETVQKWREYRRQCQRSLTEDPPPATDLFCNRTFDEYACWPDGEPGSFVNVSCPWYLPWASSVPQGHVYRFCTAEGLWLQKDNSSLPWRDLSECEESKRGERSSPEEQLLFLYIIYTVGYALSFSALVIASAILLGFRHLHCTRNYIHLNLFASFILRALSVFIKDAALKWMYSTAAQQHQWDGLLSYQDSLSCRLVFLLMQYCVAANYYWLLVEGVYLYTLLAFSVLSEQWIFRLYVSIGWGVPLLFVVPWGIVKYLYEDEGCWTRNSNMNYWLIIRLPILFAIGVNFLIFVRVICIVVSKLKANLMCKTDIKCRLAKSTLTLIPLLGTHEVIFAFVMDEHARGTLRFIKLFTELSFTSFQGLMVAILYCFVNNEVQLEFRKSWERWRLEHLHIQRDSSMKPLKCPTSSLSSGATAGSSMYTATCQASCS

Compound | EC50 (human GLP-1R; Table 9, read-out: EC50 [nM] GLP1R) | EC50 (human GLP-1R; [1]) | EC50 (human GLP-1R; [2]) | EC50 (human GLP-1R; [3]) | EC50 (human GLP-1R; [4]) | EC50 (human GIPR; Table 9, read-out: EC50 [nM] GIPR) | EC50 (human GIPR; [5]) | EC50 (human GIPR; [6]) | EC50 (human GIPR; unnumbered table (Table 10), run 03/25, read-out: GIPR (nM) [EC50] 03/25) | EC50 (human GIPR; [7]) | EC50 (human GLP-1R; Table 8, read-out: EC50 [nM] GLP1R) | EC50 (human GIPR; Table 8, read-out: EC50 [nM] GIPR) | EC50 (human GLP-1R; GLP1R (nM) [EC50] 02/19, unnumbered table (Table 10), run 02/19) | EC50 (human GLP-1R; GLP1R (nM) [EC50] 3/25, unnumbered table (Table 10), run 3/25) | EC50 (human GLP-1R; GLP1R (nM) [EC50] 03/26, unnumbered table (Table 10), run 03/26) | EC50 (human GLP-1R; GLP1R (nM) [EC50] average, unnumbered table (Table 10), average of runs) | EC50 (human GIPR; GIPR (nM) [EC50] 02/19, unnumbered table (Table 10), run 02/19)
CC[C@H](C)[C@H](NC(=O)[C@H](CO)NC(=O)[C@H](Cc1ccc(O)cc1)NC(=O)[C@H](CC(=O)O)NC(=O)[C@H](CO)NC(=O)[C@@H](NC(=O)[C@H](Cc1ccccc1)NC(=O)[C@@H](NC(=O)CNC(=O)[C@H](CCC(=O)O)NC(=O)C(C)(C)NC(=O)[C@@H](N)Cc1ccc(O)cc1)[C@@H](C)O)[C@@H](C)O)C(=O)N[C@@H](Cc1ccc(O)cc1)C(=O)N[C@@H](CC(C)C)C(=O)N[C@@H](CC(=O)O)C(=O)N[C@@H](CCCCN)C(=O)N[C@H]1CSCC(=O)NCCN(C(=O)CCC(=O)NCCOCCOCCC(=O)NCCOCCOCCC(=O)NCCCC[C@H](NC(=O)CCCCCCCCCCCCCCCCCCC(=O)O)C(=O)O)CCNC(=O)CSC[C@@H](C(=O)N[C@@H](Cc2c[nH]c3ccccc23)C(=O)N[C@@H](CC(C)C)C(=O)N[C@@H](CC(C)C)C(=O)N[C@@H](C)C(=O)NCC(=O)NCC(=O)N2CCC[C@H]2C(=O)N[C@@H](CO)C(=O)N[C@@H](CO)C(=O)NCC(=O)N[C@@H](C)C(=O)N2CCC[C@H]2C(=O)N2CCC[C@H]2C(=O)N2CCC[C@H]2C(=O)N[C@@H](CO)C(N)=O)NC(=O)[C@H](C(C)C)NC(=O)[C@H](Cc2ccccc2)NC(=O)[C@H](CCC(=O)O)NC(=O)C(C)(C)NC(=O)[C@H](C)NC(=O)[C@H](C)NC1=O [C(17-24) - C20L5A, YAibEGT-FTSDY-SIYLD-KXAAAib-EFVXW-LLAGG-PSSGA-PPPS-NH2 (where each X is C)] | 0.11 nM | 0.09 nM | 0.07 nM | 0.1 nM | 0.09 nM | 0.05 nM | 0.03 nM | 0.04 nM | 0.02 nM | 0.03 nM | – | – | – | – | – | – | –
CC[C@H](C)[C@H](NC(=O)[C@H](CC(C)C)NC(=O)[C@H](Cc1c[nH]c2ccccc12)NC(=O)[C@H](CC(N)=O)NC(=O)[C@@H](NC(=O)[C@H](Cc1ccccc1)NC(=O)[C@@H]1CSCC(=O)NCCN(C(=O)CCC(=O)NCCOCCOCCC(=O)NCCOCCOCCC(=O)NCCCC[C@H](NC(=O)CCCCCCCCCCCCCCCCC(=O)O)C(=O)O)CCNC(=O)CSC[C@H](NC(=O)[C@H](Cc2ccc(O)cc2)NC(=O)[C@@H](NC(=O)[C@H](CO)NC(=O)[C@@H](NC(=O)[C@H](CC(=O)O)NC(=O)[C@H](CO)NC(=O)[C@@H](NC(=O)[C@H](Cc2ccccc2)NC(=O)[C@@H](NC(=O)CNC(=O)[C@H](CCC(=O)O)NC(=O)C(C)(C)NC(=O)[C@@H](N)Cc2ccc(O)cc2)[C@@H](C)O)[C@@H](C)CC)C(C)C)[C@@H](C)CC)C(=O)N[C@@H](CC(=O)O)C(=O)N[C@@H](CCCCN)C(=O)N[C@@H](CCC(N)=O)C(=O)N[C@@H](C)C(=O)N[C@@H](C)C(=O)NC(C)(C)C(=O)N1)C(C)C)C(=O)N[C@@H](C)C(=O)NCC(=O)NCC(=O)N1CCC[C@H]1C(=O)N[C@@H](CO)C(=O)N[C@@H](CO)C(=O)NCC(=O)N[C@@H](C)C(=O)N1CCC[C@H]1C(=O)N1CCC[C@H]1C(=O)N1CCC[C@H]1C(=O)N[C@@H](CO)C(N)=O [7I, 10V, 27I, C(14-21) - L5A, YAibEGT-FISDV-SIYXD-KQAAAib-XFVNW-LIAGG-PSSGA-PPPS-NH2 (where each X is C)] (H-Y[Aib]EGTFISDVSIYCDKQAA[Aib]CFVNWLIAGGPSSGAPPPS-NH2; linker 14-21 via X1) | – | – | – | – | – | – | – | – | – | – | 83.9 nM | 12.5 nM | – | – | – | – | –
CC[C@H](C)[C@H](NC(=O)[C@H](CC(C)C)NC(=O)[C@H](Cc1c[nH]c2ccccc12)NC(=O)[C@H](CC(N)=O)NC(=O)[C@@H](NC(=O)[C@H](Cc1ccccc1)NC(=O)[C@@H]1CSCC(=O)NCCN(C(=O)CCC(=O)NCCOCCOCCC(=O)NCCOCCOCCC(=O)NCCCC[C@H](NC(=O)CCCCCCCCCCCCCCCCCCC(=O)O)C(=O)O)CCNC(=O)CSC[C@H](NC(=O)[C@H](Cc2ccc(O)cc2)NC(=O)[C@@H](NC(=O)[C@H](CO)NC(=O)[C@H](Cc2ccc(O)cc2)NC(=O)[C@H](CC(=O)O)NC(=O)[C@H](CO)NC(=O)[C@@H](NC(=O)[C@H](Cc2ccc(O)cc2)NC(=O)[C@@H](NC(=O)CNC(=O)[C@H](CCC(=O)O)NC(=O)C(C)(C)NC(=O)[C@@H](N)Cc2ccc(O)cc2)[C@@H](C)O)[C@@H](C)O)[C@@H](C)CC)C(=O)N[C@@H](CC(=O)O)C(=O)N[C@@H](CCCCN)C(=O)N[C@@H](CCC(N)=O)C(=O)N[C@@H](C)C(=O)N[C@@H](C)C(=O)NC(C)(C)C(=O)N1)C(C)C)C(=O)N[C@@H](C)C(=O)NCC(=O)NCC(=O)N1CCC[C@H]1C(=O)N[C@@H](CO)C(=O)N[C@@H](CO)C(=O)NCC(=O)N[C@@H](C)C(=O)N1CCC[C@H]1C(=O)N1CCC[C@H]1C(=O)N1CCC[C@H]1C(=O)N[C@@H](CO)C(N)=O [6Y, 271, C(14-21) - C20L5A, YAibEGT-YTSDY-SIYXD-KQAAAib-XFVNW-LIAGG-PSSGA-PPPS-NH2 (where each X is C)] (H-Y[Aib]EGTYTSDYSIYCDKQAA[Aib]CFVNWLIAGGPSSGAPPPS-NH2; linker 14-21 via X2) | – | – | – | – | – | – | – | – | – | – | – | – | 0.04 nM | 0.07 nM | 0.07 nM | 0.06 nM | 0.5 nM
CC[C@H](C)[C@H](NC(=O)[C@H](CC(C)C)NC(=O)[C@H](Cc1c[nH]c2ccccc12)NC(=O)[C@@H]1CSCC(=O)NCCN(C(=O)CCC(=O)NCCOCCOCCC(=O)NCCOCCOCCC(=O)NCCCC[C@H](NC(=O)CCCCCCCCCCCCCCCCCCC(=O)O)C(=O)O)CCNC(=O)CSC[C@H](NC(=O)[C@H](CCCCN)NC(=O)[C@H](CC(=O)O)NC(=O)[C@H](CC(C)C)NC(=O)[C@H](Cc2ccc(O)cc2)NC(=O)[C@@H](NC(=O)[C@H](CO)NC(=O)[C@H](Cc2ccc(O)cc2)NC(=O)[C@H](CC(=O)O)NC(=O)[C@H](CC(N)=O)NC(=O)[C@@H](NC(=O)[C@H](Cc2ccc(O)cc2)NC(=O)[C@@H](NC(=O)CNC(=O)[C@H](CCC(=O)O)NC(=O)C(C)(C)NC(=O)[C@@H](N)Cc2ccc(O)cc2)[C@@H](C)O)[C@@H](C)O)[C@@H](C)CC)C(=O)N[C@@H](C)C(=O)N[C@@H](C)C(=O)NC(C)(C)C(=O)N[C@@H](CCC(=O)O)C(=O)N[C@@H](Cc2ccccc2)C(=O)N[C@@H](C(C)C)C(=O)N1)C(=O)N[C@@H](C)C(=O)NCC(=O)NCC(=O)N1CCC[C@H]1C(=O)N[C@@H](CO)C(=O)N[C@@H](CO)C(=O)NCC(=O)N[C@@H](C)C(=O)N1CCC[C@H]1C(=O)N1CCC[C@H]1C(=O)N1CCC[C@H]1C(=O)N[C@@H](CO)C(N)=O [6Y, 8N, 27I, C(17-24) - C20L5A, YAibEGT-YTNDY-SIYLD-KXAAAib-EFVXW-LIAGG-PSSGA-PPPS-NH2 (where each X is C)] (H-Y[Aib]EGTYTNDYSIYLDKCAA[Aib]EFVCWLIAGGPSSGAPPPS-NH2; linker 17-24 via X2) | – | 0.08 nM | 0.06 nM | 0.11 nM | 0.07 nM | – | 2.88 nM | 2.48 nM | – | 3.29 nM | – | – | – | – | – | – | –
